According to article PMC3791872 (Bioscience Reports, 2013):
Where two headings read alike, the source gives them in different places.

Experiments:
pUC19 = assay: DNA intercalation assay (Topo I-relaxed plasmid); type: biochemical; details: 1 mM inhibitor added after plasmid relaxation (Figure 3C)
Excerpt: To examine this model, we tested our inhibitors in a standard topoisomerase assay. The rationale of this assay is that intercalating compounds will introduce supercoils into a fully relaxed plasmid. Topo I will remove these introduced supercoils, but after quenching and gel electrophoresis the intercalator will diffuse away and produce a detectable compensatory supercoiling increase.

[1] = target: T1, SsoMcm (Sulfolobus solfataricus Mcm protein) complex (Saccharolobus solfataricus, UniProt Q9UXG1); assay: SsoMcm helicase assay; type: biochemical; details: 1 mM, 65°C, Figure S3
T1 sequence (Q9UXG1 1-686): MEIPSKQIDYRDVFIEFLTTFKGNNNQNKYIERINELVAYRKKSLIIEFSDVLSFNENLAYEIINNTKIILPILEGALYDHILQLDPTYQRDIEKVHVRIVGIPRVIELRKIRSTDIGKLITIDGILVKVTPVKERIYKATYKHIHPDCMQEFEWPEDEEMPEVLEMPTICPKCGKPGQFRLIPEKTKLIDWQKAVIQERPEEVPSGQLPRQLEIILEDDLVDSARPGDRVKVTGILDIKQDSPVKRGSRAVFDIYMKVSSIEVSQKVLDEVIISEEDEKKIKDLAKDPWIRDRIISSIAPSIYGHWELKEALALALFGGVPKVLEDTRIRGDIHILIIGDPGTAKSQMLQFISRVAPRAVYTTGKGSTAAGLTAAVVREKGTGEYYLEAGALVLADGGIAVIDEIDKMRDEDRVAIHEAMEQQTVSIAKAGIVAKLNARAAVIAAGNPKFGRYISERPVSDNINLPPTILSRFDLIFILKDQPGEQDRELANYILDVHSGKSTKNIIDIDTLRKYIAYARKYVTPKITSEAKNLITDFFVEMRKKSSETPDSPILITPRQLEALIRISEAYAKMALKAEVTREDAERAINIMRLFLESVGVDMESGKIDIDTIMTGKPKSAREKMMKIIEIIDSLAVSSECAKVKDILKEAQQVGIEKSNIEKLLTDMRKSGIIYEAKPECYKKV
Method: Helicase assays were performed essentially as described. Synthetic replication forks were prepared by annealing oligos 233 and 235 [IDT (Coralville), oligo 233 5′(T)40[…]; oligo 235 5′ […](T)40] and then filling in the recessed 3′-end with [α32P]dATP and unlabelled dNTPs using Klenow Fragment. Briefly, reactions ([…]) were performed in 1× helicase assay buffer [20 mM Tris/HCl (pH 7.5), 10 mM MgOAc, 20% (v/v) glycerol, 100 μM EDTA and 5 mM DTT (dithiothreitol)] and contained a final concentration of 1 nM fork substrate, 5 mM ATP, 40 mM creatine phosphate, […] creatine kinase, 33 μg/ml BSA. Reactions containing Mcm2-7 and Mcm467 were supplemented with 200 mM potassium glutamate. Reactions containing SsoMcm were incubated at 65°C, those containing T4 gp41 were incubated for 30 min at 37°C, and all other reactions were incubated at 37°C for 1 h. The products were separated by 10% (w/v) native PAGE, the resulting gels dried and the radioactivity quantified using a Fuji FLA-5100 phosphoimager. […] ATP was separated from ADP by PEI (polyethyleneimine) thin layer chromatography, and the ratio of ATP:ADP was quantified using a Fuji FLA-5100 phosphoimager. […] Protein–ssDNA binding was determined with a double filter-binding assay using an ssDNA probe (oligo 826, 5′[…]) that was 5′-radiolabelled using T4 polynucleotide kinase and [γ32P]ATP [16]. […]

[2] = tested on: S. cerevisiae ∆erg6 (UPY675); assay: Yeast growth inhibition, 96-well assay, ∆erg6 strain; type: cell-based, Saccharomyces cerevisiae
DnaB = DnaB (Escherichia coli, UniProt P0ACB0); assay: DnaB helicase assay; type: biochemical; details: 1 mM, Figure S3
DnaB, sequence (P0ACB0 whole entry, the tested form may be a part): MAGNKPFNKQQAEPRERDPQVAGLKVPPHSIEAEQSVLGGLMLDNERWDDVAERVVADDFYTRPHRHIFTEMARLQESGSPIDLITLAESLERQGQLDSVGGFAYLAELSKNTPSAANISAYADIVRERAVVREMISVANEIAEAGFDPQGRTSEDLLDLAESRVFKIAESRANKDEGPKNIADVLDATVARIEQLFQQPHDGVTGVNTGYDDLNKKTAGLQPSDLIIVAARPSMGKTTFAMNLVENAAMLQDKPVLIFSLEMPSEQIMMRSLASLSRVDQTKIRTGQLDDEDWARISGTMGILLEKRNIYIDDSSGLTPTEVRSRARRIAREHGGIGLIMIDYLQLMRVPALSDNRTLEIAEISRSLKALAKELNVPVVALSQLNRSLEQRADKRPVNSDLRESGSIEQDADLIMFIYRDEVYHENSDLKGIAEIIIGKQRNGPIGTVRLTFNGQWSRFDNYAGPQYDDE
Method: Helicase assays were performed essentially as described. Synthetic replication forks were prepared by annealing oligos 233 and 235 [IDT (Coralville), oligo 233 5′(T)40[…]; oligo 235 5′ […](T)40] and then filling in the recessed 3′-end with [α32P]dATP and unlabelled dNTPs using Klenow Fragment. Briefly, reactions ([…]) were performed in 1× helicase assay buffer [20 mM Tris/HCl (pH 7.5), 10 mM MgOAc, 20% (v/v) glycerol, 100 μM EDTA and 5 mM DTT (dithiothreitol)] and contained a final concentration of 1 nM fork substrate, 5 mM ATP, 40 mM creatine phosphate, […] creatine kinase, 33 μg/ml BSA. Reactions containing Mcm2-7 and Mcm467 were supplemented with 200 mM potassium glutamate. Reactions containing SsoMcm were incubated at 65°C, those containing T4 gp41 were incubated for 30 min at 37°C, and all other reactions were incubated at 37°C for 1 h. The products were separated by 10% (w/v) native PAGE, the resulting gels dried and the radioactivity quantified using a Fuji FLA-5100 phosphoimager. Irrespective of the protein used, all helicase assays contained equal molar helicase concentrations (100 nM, assuming in all cases that the active helicase form is hexameric). Steady-state ATP hydrolysis was assayed as published. In short, reactions were set up essentially as in the helicase assay, with minor exceptions. A non-radiolabelled DNA fork was used, helicase concentration was 100 nM (hexamer) the total ATP concentration was 500 μM and included ~0.5 μCi of [α32P]ATP, and the ATP regeneration system was omitted. Reactions were incubated for 1 h at 37°C and stopped by the addition of SDS. ATP was separated from ADP by PEI (polyethyleneimine) thin layer chromatography, and the ratio of ATP:ADP was quantified using a Fuji FLA-5100 phosphoimager. Based on our prior work, conditions were established to ensure that the results shown are within the linear range of the assay. Protein–ssDNA binding was determined with a double filter-binding assay using an ssDNA probe (oligo 826, 5′[…]) that was 5′-radiolabelled using T4 polynucleotide kinase and [γ32P]ATP [16]. For the double filter-binding assay, the helicase concentration was 150 nM (hexamer) and the ssDNA concentration was 4 nM. For all biochemical assays, helicases were preincubated with inhibitors for 20 min at 37°C unless otherwise indicated. […]
against different helicases
Representative helicase activity assays in the presence of the indicated inhibitor were tested, quantiﬁed and standardized as described in the legend to F igures 2 (A) and (B). All helicases were assayed at 100 nM
ﬁnal concentration (hexamer) with inhibitor preincubation prior to ATP […]
F igure S3 Ciproﬂoxacin poor ly inhibits hexameric helicases un- […]
All inhibitors were used at 1 mM ﬁnal concentration. […]

Mcm467 [3] = target: T2, Mcm467 (Saccharomyces cerevisiae, UniProt P30665+P38132+P53091); assay: Steady-state ATP hydrolysis by Mcm467; type: biochemical; details: 1 mM compound, 100 nM hexamer
T2 construct: made in house; host or cells: baculovirus-infected insect cells
T2 sequence (P30665 whole entry): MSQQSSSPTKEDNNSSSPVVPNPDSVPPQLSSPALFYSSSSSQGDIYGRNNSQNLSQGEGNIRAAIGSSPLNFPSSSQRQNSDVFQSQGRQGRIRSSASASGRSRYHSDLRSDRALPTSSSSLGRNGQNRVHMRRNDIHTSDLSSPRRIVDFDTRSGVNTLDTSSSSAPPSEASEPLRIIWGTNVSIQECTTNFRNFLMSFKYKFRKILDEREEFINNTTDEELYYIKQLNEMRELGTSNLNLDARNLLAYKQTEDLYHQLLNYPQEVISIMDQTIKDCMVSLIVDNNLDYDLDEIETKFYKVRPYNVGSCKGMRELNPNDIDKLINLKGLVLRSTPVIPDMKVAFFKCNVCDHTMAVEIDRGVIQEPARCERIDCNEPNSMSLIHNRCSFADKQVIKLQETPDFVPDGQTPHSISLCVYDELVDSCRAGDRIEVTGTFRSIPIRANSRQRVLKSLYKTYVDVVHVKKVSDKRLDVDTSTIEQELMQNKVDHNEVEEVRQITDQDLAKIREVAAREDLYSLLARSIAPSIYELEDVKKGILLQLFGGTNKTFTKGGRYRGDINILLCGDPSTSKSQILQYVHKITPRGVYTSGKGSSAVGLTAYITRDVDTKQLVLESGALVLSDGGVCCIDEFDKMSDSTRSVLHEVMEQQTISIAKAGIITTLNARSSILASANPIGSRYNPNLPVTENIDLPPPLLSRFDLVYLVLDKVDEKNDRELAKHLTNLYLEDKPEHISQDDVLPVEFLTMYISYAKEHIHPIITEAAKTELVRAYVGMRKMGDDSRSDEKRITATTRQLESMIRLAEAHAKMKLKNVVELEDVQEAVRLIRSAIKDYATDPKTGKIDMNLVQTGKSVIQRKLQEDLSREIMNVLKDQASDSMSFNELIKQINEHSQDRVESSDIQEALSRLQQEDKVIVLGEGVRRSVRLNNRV
T2 sequence (P53091 whole entry): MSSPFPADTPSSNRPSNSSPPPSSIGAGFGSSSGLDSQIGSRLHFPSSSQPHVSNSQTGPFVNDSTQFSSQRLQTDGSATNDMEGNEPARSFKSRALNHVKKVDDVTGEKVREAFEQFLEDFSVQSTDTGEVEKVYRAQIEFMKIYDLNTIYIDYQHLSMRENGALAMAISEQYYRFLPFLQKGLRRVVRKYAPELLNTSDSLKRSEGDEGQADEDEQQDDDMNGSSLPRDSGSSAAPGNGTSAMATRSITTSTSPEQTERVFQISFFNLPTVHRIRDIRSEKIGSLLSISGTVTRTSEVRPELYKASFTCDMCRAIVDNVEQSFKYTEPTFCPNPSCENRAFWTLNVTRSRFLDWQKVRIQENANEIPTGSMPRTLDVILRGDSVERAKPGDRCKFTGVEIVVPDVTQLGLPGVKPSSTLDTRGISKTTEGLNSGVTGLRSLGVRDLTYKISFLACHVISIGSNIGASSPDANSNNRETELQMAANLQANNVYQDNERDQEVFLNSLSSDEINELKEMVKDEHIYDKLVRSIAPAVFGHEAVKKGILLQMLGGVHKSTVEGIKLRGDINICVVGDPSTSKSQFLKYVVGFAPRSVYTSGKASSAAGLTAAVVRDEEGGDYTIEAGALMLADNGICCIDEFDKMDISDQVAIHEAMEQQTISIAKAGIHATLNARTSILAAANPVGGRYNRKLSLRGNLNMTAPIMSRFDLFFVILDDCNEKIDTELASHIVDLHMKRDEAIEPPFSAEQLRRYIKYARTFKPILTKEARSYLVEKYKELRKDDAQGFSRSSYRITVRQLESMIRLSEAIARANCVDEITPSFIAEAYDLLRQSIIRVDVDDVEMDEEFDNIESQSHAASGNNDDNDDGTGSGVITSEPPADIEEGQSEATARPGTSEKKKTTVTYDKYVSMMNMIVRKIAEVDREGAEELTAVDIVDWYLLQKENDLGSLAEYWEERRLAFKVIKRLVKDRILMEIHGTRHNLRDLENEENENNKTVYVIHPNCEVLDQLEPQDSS
T2 sequence (P38132 whole entry): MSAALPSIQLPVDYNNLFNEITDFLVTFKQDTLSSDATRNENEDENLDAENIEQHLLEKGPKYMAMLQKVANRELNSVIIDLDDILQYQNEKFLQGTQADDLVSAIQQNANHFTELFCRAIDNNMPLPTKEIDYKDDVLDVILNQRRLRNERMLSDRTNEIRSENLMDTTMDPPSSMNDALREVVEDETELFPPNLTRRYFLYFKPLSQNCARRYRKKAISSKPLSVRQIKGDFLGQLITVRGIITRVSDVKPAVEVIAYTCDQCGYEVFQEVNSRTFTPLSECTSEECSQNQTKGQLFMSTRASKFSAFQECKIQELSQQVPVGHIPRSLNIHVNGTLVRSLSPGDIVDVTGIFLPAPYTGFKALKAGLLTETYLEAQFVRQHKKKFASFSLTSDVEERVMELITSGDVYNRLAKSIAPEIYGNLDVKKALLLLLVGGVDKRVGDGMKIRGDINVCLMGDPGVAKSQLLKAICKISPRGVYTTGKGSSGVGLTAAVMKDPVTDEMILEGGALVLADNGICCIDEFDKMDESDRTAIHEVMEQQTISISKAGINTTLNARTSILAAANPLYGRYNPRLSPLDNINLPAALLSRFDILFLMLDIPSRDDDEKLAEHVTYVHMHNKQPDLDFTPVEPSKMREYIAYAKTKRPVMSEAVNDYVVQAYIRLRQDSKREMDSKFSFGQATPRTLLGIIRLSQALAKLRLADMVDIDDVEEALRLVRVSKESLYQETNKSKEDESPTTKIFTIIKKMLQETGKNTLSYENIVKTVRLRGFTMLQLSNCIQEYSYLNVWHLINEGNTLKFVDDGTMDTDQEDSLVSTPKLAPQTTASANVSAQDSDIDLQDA

Mcm467 [4] = target: T2, Mcm467; assay: ssDNA double filter-binding assay, Mcm467; details: 1 mM compound, 150 nM helicase
[5] = target: SV40 large TAg (T-antigen) (Simian virus 40, UniProt P03070); assay: biochemical; set-up: species or system SV40 (simian virus 40); details: DNA unwinding
SV40 large TAg (T-antigen), sequence (P03070 whole entry, looked up): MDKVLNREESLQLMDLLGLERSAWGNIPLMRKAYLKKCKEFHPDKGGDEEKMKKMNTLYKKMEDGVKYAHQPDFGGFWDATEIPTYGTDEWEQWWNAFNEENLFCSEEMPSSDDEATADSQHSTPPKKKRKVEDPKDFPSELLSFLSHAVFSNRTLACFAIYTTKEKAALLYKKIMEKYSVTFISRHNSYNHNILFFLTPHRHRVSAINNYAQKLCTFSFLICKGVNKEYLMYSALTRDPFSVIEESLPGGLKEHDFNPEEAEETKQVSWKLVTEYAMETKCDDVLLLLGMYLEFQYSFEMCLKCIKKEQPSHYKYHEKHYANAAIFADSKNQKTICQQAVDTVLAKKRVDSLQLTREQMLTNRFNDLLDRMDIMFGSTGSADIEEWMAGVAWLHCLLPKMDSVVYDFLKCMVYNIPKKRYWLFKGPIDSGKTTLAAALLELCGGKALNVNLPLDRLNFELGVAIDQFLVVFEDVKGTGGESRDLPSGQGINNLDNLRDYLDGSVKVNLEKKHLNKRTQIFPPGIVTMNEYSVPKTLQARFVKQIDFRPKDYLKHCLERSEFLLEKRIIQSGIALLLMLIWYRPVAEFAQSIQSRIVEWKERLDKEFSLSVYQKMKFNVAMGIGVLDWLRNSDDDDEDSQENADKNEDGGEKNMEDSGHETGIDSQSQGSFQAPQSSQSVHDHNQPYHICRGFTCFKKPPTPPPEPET

O=C(O)c1cn(C2CC2)c2cc(N3CCNCC3)c(F)cc2c1=O [Ciprofloxacin, ciprofloxacin, reference compound]
DNA intercalation (pUC19): little or no intercalation
inhibition of SsoMcm helicase [1]: none of the tested helicases were substantially inhibited
growth response of ∆erg6 yeast ([2]; Figure 4A): demonstrable growth sensitivity
IC50 ([2]; Saccharomyces cerevisiae, ∆erg6 strain, growth over 24 h, value (95% CI), read-out: IC50 Yeast): 0.59 mM
inhibition of DnaB helicase (DnaB): none of the tested helicases were substantially inhibited
effect on ATP hydrolysis of Mcm467 (Mcm467 [3]): only modest effects
effect on ssDNA binding of Mcm467 (Mcm467 [4]): only modest effects
IC50 ([5]; 100 nM complex, read-out: IC50 TAg helicase activity): 4 mM
IC50 ([5]; 100 nM hexamer, inhibitor preincubation, […], read-out: IC50 T-antigen): 4.01 mM
